Experimental data published in publication PMC6154534, “New Benzimidazole-1,2,4-Triazole Hybrid Compounds: Synthesis, Anticandidal Activity and Cytotoxicity Evaluation” (Molecules : A Journal of Synthetic Chemistry and Natural …, 2017).
Converted amounts (≈) assume the structure as drawn.

Legend:
Candida species = assay: Anticandidal broth microdilution, results summarised over all strains; format: cell-based; settings: summary over all four Candida strains; for MIC50: Candida, read-out: MIC50 against Candida species
Protocol: (§1) Synthesized compounds (5a-5ad) were evaluated for anticandidal activity against C. albicans (ATCC 24433), C. krusei (ATCC 6258), C. parapsilosis (ATCC 22019) and C. [NT] 90030). MIC50 values were evaluated via fluorometric measurements, using resazurin solution [56, 57]. […] [NT] 90030). MIC readings were carried out twice for each chemical agent. The yeasts were maintained in RPMI after overnight incubation at 37 °C. The inocula of test microorganisms adjusted to match the turbidity of a MacFarland 0.5 standard tube as determined with a spectrophotometer and the final inoculum size was 0.5-2.5 × 10^5 cfu/mL for antifungal assay. Testing was carried out in RPMI at pH = 7 and the two-fold serial dilutions technique was applied. The last well on the microplates containing only inoculated broth was kept as controls and the last well with no growth of microorganism was recorded to represent the MIC50 expressed in μg/mL. For the antifungal assays, the compounds were dissolved in DMSO. […] The completed plates were incubated for 24 h. At the end of the incubation, resazurin (20 μg/mL) was added into each well to control whether the growth in wells. Then, plates were allowed to incubate for 2 h. MIC50 values were determined using a microplate reader at […].

C. glabrata (ATCC 90030) = assay: Anticandidal broth microdilution (EUCAST EDef 7.1), resazurin fluorometric readout; format: cell-based; settings: Nakaseomyces glabratus, ATCC90030; ATCC 90030, RPMI pH 7, 24 h incubation
Protocol: as §1

[1] = system: C. parapsilosis (ATCC 22019); assay: as above; format: cell-based; settings: Lodderomyces parapsilosis, ATCC22019; ATCC 22019, RPMI pH 7, 24 h incubation; read-out: MIC50 C. parapsilopsis
Protocol: as §1

C. krusei (ATCC 6258) = assay: as above; format: cell-based; settings: Pichia kudriavzevii, ATCC6258; ATCC 6258, RPMI pH 7, 24 h incubation
Protocol: as §1

C. albicans (ATCC 24433) = assay: as above; format: cell-based; settings: Candida albicans, ATCC24433; ATCC 24433, RPMI pH 7, 24 h incubation
Protocol: as §1

[2] = system: NIH/3T3 mouse embryonic fibroblast cell line (ATCC CRL1658); assay: MTT cytotoxicity assay; format: cell-based; settings: NIH3T3, tested 800 to 0.78 µg/mL, read-out: IC50 on NIH/3T3 mouse embryonic fibroblast cell lines
From the text: Toxicity is a key cause of failure at all steps of the new drug development process. The most part of safety-related problems occur at preclinical phases to predict preclinical safety liabilities earlier in the new drug development process. This approach allows to design and/or selection of better drug candidates that have more potentials to be marketed drugs. […] Cytotoxicities of selected compounds (5m, 5o, 5r, 5w, 5y, 5ab, and 5ad), displaying strong anticandidal activity and good predicted pharmacokinetics, were determined against NIH/3T3 mouse embryonic fibroblast cell lines (ATCC CRL1658).
Cytotoxicity was tested using the NIH/3T3 mouse embryonic fibroblast cell line (ATCC® CRL-1658™, London, UK). NIH/3T3 cells were incubated according to the supplier’s recommendations and they were seeded at 1 × 10^4 cells into each well of 96-well plates. MTT assay was performed as previously described. The compounds were tested in a concentration range of 800 µg/mL and 0.78 µg/mL concentrations. Percent inhibition was calculated for each concentration according to the formula below, and IC50 values were determined by plotting a concentration–response curve of inhibition percent versus compound concentrations tested.

Structure (SMILES)	melting point	anticandidal activity against Candida strains (in words) (Candida species)	MIC50 (C. glabrata (ATCC 90030))	MIC50 [1]	MIC50 (C. krusei (ATCC 6258))	MIC50 (C. albicans (ATCC 24433))	MIC50 (Candida species)	IC50 [2]
CCn1c(SCC(=O)c2ccc(Cl)cc2)nnc1-c1ccc(-c2nc3ccc(F)cc3[nH]2)cc1 [Compound 5aa, 1-(4-Chlorophenyl)-2-((4-ethyl-5-(4-(6-fluoro-1H-benzimidazol-2-yl)phenyl)-4H-1,2,4-triazol-3-yl)thio)ethan-1-one]	241.4 °C	did not show strong activity	12.5 µg/mL (≈ 25.4 µM)	12.5 µg/mL (≈ 25.4 µM)	6.25 µg/mL (≈ 12.7 µM)	6.25 µg/mL (≈ 12.7 µM)		
CCn1c(SCC(=O)c2ccc(F)cc2)nnc1-c1ccc(-c2nc3ccc(F)cc3[nH]2)cc1 [Compound 5ab, 2-((4-Ethyl-5-(4-(6-fluoro-1H-benzimidazol-2-yl)phenyl)-4H-1,2,4-triazol-3-yl)thio)-1-(4-fluorophenyl)ethan-1-one]	251 °C		1.56 µg/mL (≈ 3.28 µM)	0.78 µg/mL (≈ 1.64 µM)	1.56 µg/mL (≈ 3.28 µM)	0.78 µg/mL (≈ 1.64 µM)	0.78 to 1.56 µg/mL (≈ 1.64 to 3.28 µM)	43.1 ± 2.88 µg/mL (≈ 90.7 µM)
CCn1c(SCC(=O)c2ccc(Cl)cc2Cl)nnc1-c1ccc(-c2nc3ccc(F)cc3[nH]2)cc1 [Compound 5ac, 1-(2,4-Dichlorophenyl)-2-((4-ethyl-5-(4-(6-fluoro-1H-benzimidazol-2-yl)phenyl)-4H-1,2,4-triazol-3-yl)thio)ethan-1-one]	223.3 °C		1.56 µg/mL (≈ 2.96 µM)	1.56 µg/mL (≈ 2.96 µM)	1.56 µg/mL (≈ 2.96 µM)	1.56 µg/mL (≈ 2.96 µM)	1.56 to 3.12 µg/mL (≈ 2.96 to 5.93 µM)	
Cn1c(SCC(=O)c2ccc(F)cc2)nnc1-c1ccc(-c2nc3ccc(Cl)cc3[nH]2)cc1 [Compound 5m, 2-((5-(4-(6-Chloro-1H-benzimidazol-2-yl)phenyl)-4-methyl-4H-1,2,4-triazol-3-yl)thio)-1-(4-fluorophenyl)ethan-1-one]	274.5 °C		1.56 µg/mL (≈ 3.26 µM)	0.78 µg/mL (≈ 1.63 µM)	0.78 µg/mL (≈ 1.63 µM)	0.78 µg/mL (≈ 1.63 µM)	0.78 to 1.56 µg/mL (≈ 1.63 to 3.26 µM)	17.4 ± 0.89 µg/mL (≈ 36.4 µM)
Cn1c(SCC(=O)c2ccc(Cl)cc2Cl)nnc1-c1ccc(-c2nc3ccc(Cl)cc3[nH]2)cc1 [Compound 5n, 2-((5-(4-(6-Chloro-1H-Benzimidazol-2-yl)phenyl)-4-methyl-4H-1,2,4-triazol-3-yl)thio)-1-(2,4-dichlorophenyl)ethan-1-one]	274.2 °C		3.12 µg/mL (≈ 5.9 µM)	3.12 µg/mL (≈ 5.9 µM)	1.56 µg/mL (≈ 2.95 µM)	1.56 µg/mL (≈ 2.95 µM)	1.56 to 3.12 µg/mL (≈ 2.95 to 5.9 µM)	
Cn1c(SCC(=O)c2ccc(F)cc2F)nnc1-c1ccc(-c2nc3ccc(Cl)cc3[nH]2)cc1 [Compound 5o, 2-((5-(4-(6-Chloro-1H-benzimidazol-2-yl)phenyl)-4-methyl-4H-1,2,4-triazol-3-yl)thio)-1-(2,4-difluorophenyl)ethan-1-one]	264.9 °C		1.56 µg/mL (≈ 3.15 µM)	0.78 µg/mL (≈ 1.57 µM)	1.56 µg/mL (≈ 3.15 µM)	0.78 µg/mL (≈ 1.57 µM)	0.78 to 1.56 µg/mL (≈ 1.57 to 3.15 µM)	1.63 ± 0.02 µg/mL (≈ 3.29 µM)
CCn1c(SCC(=O)c2ccccc2)nnc1-c1ccc(-c2nc3ccc(Cl)cc3[nH]2)cc1 [Compound 5p, 2-((5-(4-(6-Chloro-1H-benzimidazol-2-yl)phenyl)-4-ethyl-4H-1,2,4-triazol-3-yl)thio)-1-phenylethan-1-one]	248.5 °C	did not show strong activity	12.5 µg/mL (≈ 26.4 µM)	25 µg/mL (≈ 52.7 µM)	50 µg/mL (≈ 105 µM)	12.5 µg/mL (≈ 26.4 µM)		
CCn1c(SCC(=O)c2ccc(Cl)cc2)nnc1-c1ccc(-c2nc3ccc(Cl)cc3[nH]2)cc1 [Compound 5q, 2-((5-(4-(6-Chloro-1H-benzimidazol-2-yl)phenyl)-4-ethyl-4H-1,2,4-triazol-3-yl)thio)-1-(4-chlorophenyl)ethan-1-one]	252.2 °C	did not show strong activity	12.5 µg/mL (≈ 24.6 µM)	12.5 µg/mL (≈ 24.6 µM)	12.5 µg/mL (≈ 24.6 µM)	6.25 µg/mL (≈ 12.3 µM)		
CCn1c(SCC(=O)c2ccc(F)cc2)nnc1-c1ccc(-c2nc3ccc(Cl)cc3[nH]2)cc1 [Compound 5r, 2-((5-(4-(6-Chloro-1H-benzimidazol-2-yl)phenyl)-4-ethyl-4H-1,2,4-triazol-3-yl)thio)-1-(4-fluorophenyl)ethan-1-one]	265.5 °C		0.78 µg/mL (≈ 1.59 µM)	1.56 µg/mL (≈ 3.17 µM)	1.56 µg/mL (≈ 3.17 µM)	0.78 µg/mL (≈ 1.59 µM)	0.78 to 1.56 µg/mL (≈ 1.59 to 3.17 µM)	13.9 ± 0.69 µg/mL (≈ 28.3 µM)
CCn1c(SCC(=O)c2ccc(Cl)cc2Cl)nnc1-c1ccc(-c2nc3ccc(Cl)cc3[nH]2)cc1 [Compound 5s, 2-((5-(4-(6-Chloro-1H-benzimidazol-2-yl)phenyl)-4-ethyl-4H-1,2,4-triazol-3-yl)thio)-1-(2,4-dichlorophenyl)ethan-1-one]	192 °C		3.12 µg/mL (≈ 5.75 µM)	1.56 µg/mL (≈ 2.87 µM)	3.12 µg/mL (≈ 5.75 µM)	1.56 µg/mL (≈ 2.87 µM)	1.56 to 3.12 µg/mL (≈ 2.87 to 5.75 µM)	
CCn1c(SCC(=O)c2ccc(F)cc2F)nnc1-c1ccc(-c2nc3ccc(Cl)cc3[nH]2)cc1 [Compound 5t, 2-((5-(4-(6-Chloro-1H-benzimidazol-2-yl)phenyl)-4-ethyl-4H-1,2,4-triazol-3-yl)thio)-1-(2,4-difluorophenyl)ethan-1-one]	250.6 °C		1.56 µg/mL (≈ 3.06 µM)	0.78 µg/mL (≈ 1.53 µM)	0.78 µg/mL (≈ 1.53 µM)	0.78 µg/mL (≈ 1.53 µM)	0.78 to 1.56 µg/mL (≈ 1.53 to 3.06 µM)	
Cn1c(SCC(=O)c2ccccc2)nnc1-c1ccc(-c2nc3ccc(F)cc3[nH]2)cc1 [Compound 5u, 2-((5-(4-(6-Fluoro-1H-benzimidazol-2-yl)phenyl)-4-methyl-4H-1,2,4-triazol-3-yl)thio)-1-phenylethan-1-one]	277.1 °C	did not show strong activity	25 µg/mL (≈ 56.4 µM)	50 µg/mL (≈ 113 µM)	50 µg/mL (≈ 113 µM)	12.5 µg/mL (≈ 28.2 µM)		
Cn1c(SCC(=O)c2ccc(Cl)cc2)nnc1-c1ccc(-c2nc3ccc(F)cc3[nH]2)cc1 [Compound 5v, 1-(4-Chlorophenyl)-2-((5-(4-(6-fluoro-1H-benzimidazol-2-yl)phenyl)-4-methyl-4H-1,2,4-triazol-3-yl)thio)ethan-1-one]	252.9 °C	did not show strong activity	6.25 µg/mL (≈ 13.1 µM)	12.5 µg/mL (≈ 26.2 µM)	12.5 µg/mL (≈ 26.2 µM)	12.5 µg/mL (≈ 26.2 µM)	1.56 to 3.12 µg/mL (≈ 3.26 to 6.53 µM)	
Cn1c(SCC(=O)c2ccc(F)cc2F)nnc1-c1ccc(-c2nc3ccc(F)cc3[nH]2)cc1 [Compound 5y, 1-(2,4-Difluorophenyl)-2-((5-(4-(6-fluoro-1H-benzimidazol-2-yl)phenyl)-4-methyl-4H-1,2,4-triazol-3-yl)thio)ethan-1-one]	263.2 °C		1.56 µg/mL (≈ 3.25 µM)	1.56 µg/mL (≈ 3.25 µM)	0.78 µg/mL (≈ 1.63 µM)	0.78 µg/mL (≈ 1.63 µM)	0.78 to 1.56 µg/mL (≈ 1.63 to 3.25 µM)	11.1 ± 0.57 µg/mL (≈ 23.2 µM)
